Source: ChEMBL document CHEMBL1130917, “The design, synthesis, and structure-activity relationships of a series of macrocyclic MMP inhibitors” (Bioorg Med Chem Lett, 1998)

Key:
Matrilysin = biological target: T1, Matrilysin (Homo sapiens, UniProt P09237); assay: Inhibition of fibroblast matrilysin (MMP-7)
T1 sequence (P09237 whole entry): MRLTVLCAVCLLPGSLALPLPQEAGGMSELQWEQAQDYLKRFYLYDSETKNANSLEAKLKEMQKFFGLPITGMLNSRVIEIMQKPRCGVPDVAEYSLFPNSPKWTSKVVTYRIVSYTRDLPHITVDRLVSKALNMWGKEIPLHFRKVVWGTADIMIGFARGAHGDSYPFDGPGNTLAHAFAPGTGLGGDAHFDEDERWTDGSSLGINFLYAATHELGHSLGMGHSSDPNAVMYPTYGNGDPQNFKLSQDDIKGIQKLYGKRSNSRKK

Interstitial collagenase = biological target: T2, Interstitial collagenase (Homo sapiens, UniProt P03956); assay: Inhibition of fibroblast collagenase (MMP-1)
T2 sequence (P03956 whole entry): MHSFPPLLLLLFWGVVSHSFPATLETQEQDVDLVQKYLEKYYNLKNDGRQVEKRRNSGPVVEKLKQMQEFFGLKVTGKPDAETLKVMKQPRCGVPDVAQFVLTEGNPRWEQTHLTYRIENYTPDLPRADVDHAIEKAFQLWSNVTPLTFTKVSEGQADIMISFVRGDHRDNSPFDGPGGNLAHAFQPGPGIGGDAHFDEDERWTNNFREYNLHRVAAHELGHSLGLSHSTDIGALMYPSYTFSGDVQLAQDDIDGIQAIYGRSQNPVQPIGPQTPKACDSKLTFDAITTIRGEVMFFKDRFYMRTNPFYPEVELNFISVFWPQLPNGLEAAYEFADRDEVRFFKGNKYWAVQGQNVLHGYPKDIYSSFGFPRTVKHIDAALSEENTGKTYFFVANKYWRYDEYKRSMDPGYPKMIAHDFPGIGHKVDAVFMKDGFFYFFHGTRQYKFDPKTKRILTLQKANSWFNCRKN

Stromelysin-1 = Stromelysin-1 (Homo sapiens, UniProt P08254); assay: Inhibition of fibroblast stromelysin (MMP-3)
[1] = biological target: 72 kDa type IV collagenase (Homo sapiens, UniProt P08253); assay: Inhibition of fibroblast gelatinase A (MMP-2)
72 kDa type IV collagenase, sequence (P08253 whole entry): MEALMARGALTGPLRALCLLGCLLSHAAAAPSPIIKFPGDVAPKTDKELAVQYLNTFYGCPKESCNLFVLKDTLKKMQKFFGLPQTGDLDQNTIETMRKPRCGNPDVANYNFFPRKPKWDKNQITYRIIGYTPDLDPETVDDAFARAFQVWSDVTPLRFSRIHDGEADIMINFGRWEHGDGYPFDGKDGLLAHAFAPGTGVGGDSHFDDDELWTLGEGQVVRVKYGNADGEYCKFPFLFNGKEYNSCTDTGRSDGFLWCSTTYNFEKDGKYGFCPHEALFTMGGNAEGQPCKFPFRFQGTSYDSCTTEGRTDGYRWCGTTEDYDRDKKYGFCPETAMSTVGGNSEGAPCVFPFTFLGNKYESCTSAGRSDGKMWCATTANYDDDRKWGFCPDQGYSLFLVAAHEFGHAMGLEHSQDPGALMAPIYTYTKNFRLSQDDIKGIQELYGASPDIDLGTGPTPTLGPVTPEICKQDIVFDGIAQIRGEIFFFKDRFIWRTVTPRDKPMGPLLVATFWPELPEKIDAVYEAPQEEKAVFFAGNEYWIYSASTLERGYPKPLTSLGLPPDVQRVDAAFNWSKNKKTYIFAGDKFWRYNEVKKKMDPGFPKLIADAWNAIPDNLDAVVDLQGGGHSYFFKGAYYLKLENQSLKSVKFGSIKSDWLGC

Stromelysin-1, sequence (P08254 whole entry): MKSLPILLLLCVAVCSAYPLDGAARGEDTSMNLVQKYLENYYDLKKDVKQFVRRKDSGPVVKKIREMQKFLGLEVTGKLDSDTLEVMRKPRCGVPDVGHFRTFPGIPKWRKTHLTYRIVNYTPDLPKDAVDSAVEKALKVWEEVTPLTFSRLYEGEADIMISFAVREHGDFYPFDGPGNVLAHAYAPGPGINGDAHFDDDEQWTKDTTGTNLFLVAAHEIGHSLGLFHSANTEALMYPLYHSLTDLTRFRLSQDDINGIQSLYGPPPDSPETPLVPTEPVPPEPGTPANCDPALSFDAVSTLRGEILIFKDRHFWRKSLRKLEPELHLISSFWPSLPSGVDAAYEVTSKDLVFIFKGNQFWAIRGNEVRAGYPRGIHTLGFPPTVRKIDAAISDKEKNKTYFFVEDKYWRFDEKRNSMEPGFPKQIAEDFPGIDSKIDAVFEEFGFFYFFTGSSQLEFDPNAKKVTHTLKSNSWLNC

Structure (SMILES) | IC50 (Matrilysin) [nM] | IC50 (Interstitial collagenase) [nM] | IC50 (Stromelysin-1) [nM] | IC50 [1] [nM]
CNC(=O)[C@@H]1Cc2ccc(cc2)OCCCC[C@H](C(=O)NO)[C@@H](CCCCOCc2ccccc2)C(=O)N1 | 180 | 210 | 1.8 | 0.3
CC(C)C[C@H]1C(=O)N[C@H](C(=O)NCCc2ccc(S(N)(=O)=O)cc2)Cc2ccc(cc2)OCCCC[C@@H]1C(=O)NO | 25 | 3 |  | 1.9
CNC(=O)[C@@H]1Cc2ccc(cc2)OCCCCCC[C@H](C(=O)NO)[C@@H](CC(C)C)C(=O)N1 | 5.7 | 2.2 |  | 5.9
CC(C)C[C@H]1C(=O)N[C@H](C(=O)NCCN(C)C)Cc2ccc(cc2)OCCCC[C@@H]1C(=O)NO | 4.2 | 6.6 | 12 | 6.5
CCCc1ccc(CC[C@H]2C(=O)N[C@H](C(=O)NC)Cc3ccc(cc3)OCCCC[C@@H]2C(=O)NO)cc1 | 5.9 | 54 |  | 0.1
CNC(=O)[C@@H]1Cc2ccc(cc2)OCCCCC[C@H](C(=O)O)[C@@H](CC(C)C)C(=O)N1 | 110 | 1400 | 75 | 1400
CNC(=O)[C@@H]1Cc2ccc(cc2)OCCC[C@H](C(=O)O)[C@@H](CC(C)C)C(=O)N1 | 900 | > 10000 |  | 14000
CNC(=O)[C@@H]1Cc2ccc(cc2)OCCCC[C@@H](C(=O)NO)[C@@H](CC(C)C)C(=O)N1 | 440 | 110 |  | 230

Stronger by IC50 (Matrilysin), values ahead:

IC50 (Matrilysin) [nM] | IC50 (Interstitial collagenase) [nM] | IC50 (Stromelysin-1) [nM] | IC50 [1] [nM] | Structure (SMILES)
2.6 | 2.1 |  | 2.3 | CNC(=O)[C@@H]1Cc2ccc(cc2)OCCCCC[C@H](C(=O)NO)[C@@H](CC(C)C)C(=O)N1
1.6 | 1.8 |  | 2.2 | CNC(=O)[C@@H]1Cc2ccc(cc2)OCCCC[C@H](C(=O)NO)[C@@H](CC(C)C)C(=O)N1
2.5 | 2.7 | 4.2 | 3.8 | CSCCNC(=O)[C@@H]1Cc2ccc(cc2)OCCCC[C@H](C(=O)NO)[C@@H](CC(C)C)C(=O)N1
2.8 | 6.1 | 9.1 | 0.8 | CNC(=O)[C@@H]1Cc2ccc(cc2)OCCCC[C@H](C(=O)NO)[C@@H](CCCc2ccc(C)cc2)C(=O)N1
3 | 3 |  | 2.6 | CNC(=O)[C@@H]1Cc2ccc(cc2)OCCC[C@H](C(=O)NO)[C@@H](CC(C)C)C(=O)N1
1.6 | 4.6 |  | 2.1 | CC(C)C[C@H]1C(=O)N[C@H](C(=O)Nc2ccccn2)Cc2ccc(cc2)OCCCC[C@@H]1C(=O)NO
